# Results taken from ChEMBL document CHEMBL1138549, “Synthesis of new 2-substituted pyrido[2,3-d]pyrimidin-4(1H)-ones and their antibacterial activity” (2009).
# Active and inactive are the calls of the source. No cut-off for these calls is given here.
# What was measured:
# Candida albicans = test: Antifungal activity against Candida albicans at 200 ug/ml; type: functional, organism-based
# Klebsiella pneumoniae = test: Antibacterial activity against Klebsiella pneumoniae MTCC 109 after 24 hrs by NCCLS M7-A5 method; type: functional; settings: MTCC 109, 24 h
# Staphylococcus aureus = test: Antibacterial activity against Staphylococcus aureus MTCC 96 after 24 hrs by NCCLS M7-A5 method; type: functional; settings: MTCC 96, 24 h
# Bacillus subtilis = test: Antibacterial activity against Bacillus subtilis MTCC 441 after 24 hrs by NCCLS M7-A5 method; type: functional; settings: MTCC 441, 24 h
# Aspergillus niger = test: Antifungal activity against Aspergillus niger at 200 ug/ml; type: functional, organism-based
# Escherichia coli = test: Antibacterial activity against Escherichia coli MTCC 722 after 24 hrs by NCCLS M7-A5 method; type: functional; settings: MTCC 722, 24 h
# MCF7 = test: Cytotoxicity against human MCF7 cells up to 150 ug/ml; type: functional, cell-based
Compound,Activity (Candida albicans),MIC (Klebsiella pneumoniae) [µg/mL],MIC (Staphylococcus aureus) [µg/mL],MIC (Bacillus subtilis) [µg/mL],Activity (Aspergillus niger),MIC (Escherichia coli) [µg/mL],Activity (MCF7)
Cc1cc(C)c2c(n1)NC(c1cccs1)NC2=O (configuration not stated),inactive,25,12.5,6.25,inactive,12.5,Not toxic
COc1ccc(C2NC(=O)c3c(C)cc(C)nc3N2)c(O)c1 (configuration not stated),inactive,25,25,25,inactive,50,Not toxic
Cc1cc(C)c2c(=O)[nH]c(-c3ccccc3O)nc2n1,inactive,100,50,50,inactive,50,Not toxic
COc1cc(C2NC(=O)c3c(C)cc(C)nc3N2)ccc1O (configuration not stated),inactive,50,1.25,12.5,inactive,50,Not toxic
COc1ccc(C2NC(=O)c3c(C)cc(C)nc3N2)cc1 (configuration not stated),inactive,6.25,12.5,6.25,inactive,3.25,Not toxic
Cc1cc(C)c2c(n1)NC(c1cccc(C)c1C)NC2=O (configuration not stated),inactive,25,12.5,6.25,inactive,12.5,Not toxic
COc1ccc(C2NC(=O)c3c(C)cc(C)nc3N2)cc1OC (configuration not stated),inactive,12.5,3.25,3.25,inactive,6.25,Not toxic
Cc1cc(C)c2c(=O)[nH]c(-c3cccc(Cl)c3Cl)nc2n1,inactive,–,100,50,inactive,–,Not toxic
Cc1cc(C)c2c(n1)NC(c1ccco1)NC2=O (configuration not stated),inactive,12.5,12.5,3.25,inactive,25,Not toxic
COc1ccc(-c2nc3nc(C)cc(C)c3c(=O)[nH]2)cc1OC,inactive,12.5,6.25,6.25,inactive,12.5,Not toxic
Cc1cc(C)c2c(=O)[nH]c(-c3cc(C)c(O)c(C)c3)nc2n1,inactive,12.5,6.25,12.5,inactive,6.25,Not toxic
COc1ccc(-c2nc3nc(C)cc(C)c3c(=O)[nH]2)cc1,inactive,25,12.5,25,inactive,12.5,Not toxic
COc1cc(C2NC(=O)c3c(C)cc(C)nc3N2)cc(OC)c1OC (configuration not stated),inactive,1.25,1.25,3.25,inactive,3.25,Not toxic
Cc1cc(C)c2c(=O)[nH]c(-c3cccs3)nc2n1,inactive,50,25,12.5,inactive,12.5,Not toxic
Cc1cc(C)c2c(n1)NC(c1ccccc1O)NC2=O (configuration not stated),inactive,50,50,25,inactive,50,Not toxic
Cc1cc(C)c2c(n1)NC(c1cc(C)c(O)c(C)c1)NC2=O (configuration not stated),inactive,12.5,3.25,3.25,inactive,6.25,Not toxic
O=C(O)c1cn(C2CC2)c2cc(N3CCNCC3)c(F)cc2c1=O [CIPROFLOXACIN],–,0.78,0.39,0.78,–,–,–
COc1ccc(-c2nc3nc(C)cc(C)c3c(=O)[nH]2)c(OC)c1,inactive,50,25,12.5,inactive,25,Not toxic
COc1cc(-c2nc3nc(C)cc(C)c3c(=O)[nH]2)cc(OC)c1OC,inactive,6.25,6.25,12.5,inactive,25,Not toxic
Cc1cc(C)c2c(=O)[nH]c(-c3ccco3)nc2n1,inactive,50,25,12.5,inactive,25,Not toxic
CC(=O)Oc1ccc(-c2nc3nc(C)cc(C)c3c(=O)[nH]2)cc1,inactive,50,25,25.5,inactive,25,Not toxic
CC(=O)Oc1ccc(C2NC(=O)c3c(C)cc(C)nc3N2)cc1 (configuration not stated),inactive,50,12.5,6.25,inactive,25,Not toxic
Cc1cc(C)c2c(n1)NC(c1cccc(Cl)c1Cl)NC2=O (configuration not stated),inactive,100,50,25,inactive,–,Not toxic
Cc1cc(C)c2c(=O)[nH]c(-c3cccc(C)c3C)nc2n1,inactive,50,12.5,12.5,inactive,12.5,Not toxic
COc1cc(-c2nc3nc(C)cc(C)c3c(=O)[nH]2)ccc1O,inactive,50,12.5,25,inactive,50,Not toxic
COc1ccc(-c2nc3nc(C)cc(C)c3c(=O)[nH]2)c(O)c1,inactive,50,50,50,inactive,50,Not toxic
COc1ccc(C2NC(=O)c3c(C)cc(C)nc3N2)c(OC)c1 (configuration not stated),inactive,12.5,12.5,3.25,inactive,25,Not toxic
